{"source": "patent US20070135509A1", "about": "“Indolone compounds useful to treat cognitive impairment” (priority 2005, published 2007)", "key": {"C57BL/6 mice [1]": {"system": "C57BL/6 mice", "assay": "Contextual fear conditioning (contextual memory, freezing to context)", "assay_type": "in vivo", "conditions": "for 24 h contextual memory (freezing) / freezing to context 24 hr after training: mean±SEM; for 24 h contextual memory (freezing): controls 22.3±3.2%; for freezing to context 24 hr after training: controls 24.5±3.2%", "source_text": "Contextual Memory. Contextual memory is a form of Pavlovian fear conditioning in which a naïve mouse is placed into a novel chamber (context) containing distinct visual, olfactory and tactile cues. After a few seconds of acclimation, the mouse receives a brief, mild electric shock to its feet. From this negative experience, the mouse will remember for months that that chamber is dangerous. When placed back into the same context at some later time after training, the mouse's natural response to danger is to “freeze,” sitting stone still for many seconds. This is similar to what happens to humans when they experience fear. The percent of time during an observation period that the mouse spends frozen represents a quantitative measure (memory score) of its memory of the context.\n(§1) Subjects. Young-adult (10-12 weeks old) C57B1/6 male mice (Taconic, N.Y.) were used. The mice were housed (5 mice) in standard laboratory cages and maintained on a 12:12 light-dark cycle. The experiments were always conducted during the light phase of the cycle. The day before the initiation of the experiment, mice were housed single in individual cages and maintained so until the end of the experiment. With the exception of testing times, the mice had liberal access to food and water. The experiments were conducted in accordance with Animal Welfare Assurance #A3280-01. Animals were maintained in accordance with the Animal Welfare Act and Department of Health and Human Services Guide.\nContextual Conditioning Training and Testing. To assess contextual memory, a standardized contextual fear conditioning task originally developed for evaluation of memory in cyclic AMP response element binding protein (“CREB”) knock-out mice was used (Bourtchouladze et al., 1994). On the training day, the mouse was placed into the conditioning chamber (Med Associates, Inc., VA) for 2 minutes before the onset of unconditioned stimulus (US), 0.5 mA, of 2 second foot shock. The US was repeated two times with a 1 min inter-trial interval between shocks. Training was performed by automated software package (Med Associates, Inc., VA). After the last training trial, the mice were left in the conditioning chamber for another 30 seconds and were then placed back in their home cages. 24 hours after training, the mouse was placed into the same training chamber and contextual memory was assessed by scoring freezing behavior (‘freezing’ serves as memory score). Freezing was defined as the complete lack of movement in intervals of 5 seconds (Kim et al., 1993; Phillips & LeDoux, 1992; Bourtchouladze et al., 1994; 1998; Abel et al., 1997). Total testing time lasted 3 minutes. After each experimental subject, the experimental apparatus was thoroughly cleaned with 75% ethanol, water, dried, and ventilated for a few minutes.\nContextual Conditioning Data Analysis. All experiments were designed and performed in a balanced fashion, meaning that (i) for each experimental condition (e.g. a specific dose-effect) we used an equal number of experimental and control mice; (ii) each experimental condition was replicated 2-3 independent times, and replicate days were added to generate final number of subjects. The proceeding of each experiment was filmed. In each experiment, the experimenter was unaware (blind) to the treatment of the subjects during training and testing. Data were analyzed by Student's unpaired t test using a software package (Statwiew 5.0.1; SAS Institute, Inc). All values in the text and figures are expressed as mean±SEM.\nDrug Compound Administration. Compound 2 was freshly prepared from a stock solution (10 mg/ml DMSO), which was maintained at 4° C. Compound 2 was dissolved in a suspension of 5% DMSO and 95% CMC at 2% in water and administered intraperitoneally (I.P.) at doses 5 mg/kg; 10 mg/kg and 30 mg/kg 20 min before training or at 1 mg/kg and 30 mg/kg orally 60 min before training. Control animals received vehicle alone (5% DMSO and 95% CMC at 2% in water). […]"}, "C57BL/6 mice [2]": {"system": "C57BL/6 mice", "assay": "Object recognition (novel object recognition memory)", "assay_type": "in vivo", "conditions": "for Discrimination Index (DI), 24 hour object recognition: mean±SEM, vehicle -10.2±4", "source_text": "Object Recognition. […] This task relies on the natural curiosity of rodents to explore novel objects in their environments more than familiar ones. Obviously, for an object to be “familiar,” the animal must have attended to it before and remembered that experience.\nDuring training, a mouse is presented with two identical, novel objects. Mice explore them equally by approaching, sniffing and crawling over them. During testing, the animal is presented with the training object and a second, novel one. Memory of the training object renders it familiar to the animal, and it then spends more time exploring the new novel object rather than the familiar one (Bourtchouladze t al., 2003). […] Consistent with these findings, rats with the PFC lesions show poor working memory when they are required to discriminate between familiar and novel objects (Mitchell, 1998).\nas §1\nObject Recognition Training and Testing. […]\nObject Recognition Data Analysis. […] Types were reviewed by a blinded observer and the following behavioral parameters were determined: time of exploration of an each object; the total time of exploration of the objects; number of approaches to the objects; and time (latency) to first approach to an object. The discrimination index—memory score—was determined as described previously (Ennaceur et al., 1997, Bourtchouladze et al., 2003). […] All values in the text and figures are expressed as mean±SEM. […]"}}, "data": [{"smiles": "O=C1C(=Nc2cccc(C(F)(F)F)c2)c2ccccc2N1c1ccccc1", "note": "[Compound 2, 1-PHENYL-3-[[3-(TRIFLUOROMETHYL)PHENYL]IMINO]-1,3-DIHYDRO-2H-INDOL-2-ONE]", "values": [{"measurement": "24 h contextual memory (freezing)", "setting": "C57BL/6 mice [1]; 1 mg/kg oral 60 min before training, p<0.01", "value": "36.4±3.9", "unit": "%"}, {"measurement": "freezing to context 24 hr after training", "setting": "C57BL/6 mice [1]; 5 mg/kg I.P. 20 min before training, p<0.05", "value": "40.3±4.7", "unit": "%"}, {"measurement": "Effects on contextual memory in mice (FIG. 1)", "setting": "C57BL/6 mice [1]; 5 mg/kg, 10 mg/kg and 30 mg/kg i.p., 24 hours after training", "value": "significantly facilitated freezing to context"}, {"measurement": "freezing to context 24 hr after training", "setting": "C57BL/6 mice [1]; 10 mg/kg I.P. 20 min before training, p<0.01", "value": "51.4±9.1", "unit": "%"}, {"measurement": "freezing to context 24 hr after training", "setting": "C57BL/6 mice [1]; 30 mg/kg I.P. 20 min before training, p<0.001", "value": "49.1±3.7", "unit": "%"}, {"measurement": "24 h contextual memory (freezing)", "setting": "C57BL/6 mice [1]; 30 mg/kg oral 60 min before training, p<0.05", "value": "34.1±4.3", "unit": "%"}, {"measurement": "Effects on contextual memory in mice (FIG. 2)", "setting": "C57BL/6 mice [1]; single dose of 1 mg/kg or 30 mg/kg orally, 24 hr", "value": "significantly enhanced 24 hr contextual memory"}, {"measurement": "Effect on object recognition memory in mice (FIG. 3)", "setting": "C57BL/6 mice [2]; 1 mg/kg and 5 mg/kg i.p. twenty (20) minutes before training, C57BL/6 mice", "value": "ameliorated long-term memory deficit"}, {"measurement": "Discrimination Index (DI), 24 hour object recognition", "setting": "C57BL/6 mice [2]; 1 mg/kg i.p. 20 minutes before 15-minute training, p<0.05", "value": "5.1±6"}, {"measurement": "Discrimination Index (DI), 24 hour object recognition", "setting": "C57BL/6 mice [2]; 5 mg/kg i.p. 20 minutes before 15-minute training, p<0.0005", "value": "18.8±6.6"}]}]}
